# Read-outs that look alike come from different tables or passages of the source.
# What was measured:
# [1] = tested on: cellular H3K36me2 level in multiple myeloma cell line KMS11 (t(4;14)+); assay: H3K36me2 cellular ELISA assay in KMS11-Par line; assay type: cell-based; settings: Homo sapiens, KMS-11; KMS11-Par line (t(4;14)+), 72 hours treatment, ELISA; read-out: H3K36me2 ELISA in KMS11-Par
# Procedure, shortened: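 KMS11 cells were seeded a day ahead at 1,250 per well in Opti-MEM with B-27/N2, then treated with compound for 72 h. Histones were acid-extracted with 0.4M HCl, and H3K36me2 and total H3 were read by chemiluminescent ELISA. Viability was checked with CellTiter-Glo on a parallel plate in maintenance media.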
# NSD2 [1-1365] = NSD2 [1-1365] (Homo sapiens (Human), UniProt O96028); assay: LC-MS/MS-based NSD2 enzymatic assay (SAH production); assay type: biochemical; settings: read-out: NSD2 IC50
# Chain of NSD2 [1-1365] (O96028 whole entry): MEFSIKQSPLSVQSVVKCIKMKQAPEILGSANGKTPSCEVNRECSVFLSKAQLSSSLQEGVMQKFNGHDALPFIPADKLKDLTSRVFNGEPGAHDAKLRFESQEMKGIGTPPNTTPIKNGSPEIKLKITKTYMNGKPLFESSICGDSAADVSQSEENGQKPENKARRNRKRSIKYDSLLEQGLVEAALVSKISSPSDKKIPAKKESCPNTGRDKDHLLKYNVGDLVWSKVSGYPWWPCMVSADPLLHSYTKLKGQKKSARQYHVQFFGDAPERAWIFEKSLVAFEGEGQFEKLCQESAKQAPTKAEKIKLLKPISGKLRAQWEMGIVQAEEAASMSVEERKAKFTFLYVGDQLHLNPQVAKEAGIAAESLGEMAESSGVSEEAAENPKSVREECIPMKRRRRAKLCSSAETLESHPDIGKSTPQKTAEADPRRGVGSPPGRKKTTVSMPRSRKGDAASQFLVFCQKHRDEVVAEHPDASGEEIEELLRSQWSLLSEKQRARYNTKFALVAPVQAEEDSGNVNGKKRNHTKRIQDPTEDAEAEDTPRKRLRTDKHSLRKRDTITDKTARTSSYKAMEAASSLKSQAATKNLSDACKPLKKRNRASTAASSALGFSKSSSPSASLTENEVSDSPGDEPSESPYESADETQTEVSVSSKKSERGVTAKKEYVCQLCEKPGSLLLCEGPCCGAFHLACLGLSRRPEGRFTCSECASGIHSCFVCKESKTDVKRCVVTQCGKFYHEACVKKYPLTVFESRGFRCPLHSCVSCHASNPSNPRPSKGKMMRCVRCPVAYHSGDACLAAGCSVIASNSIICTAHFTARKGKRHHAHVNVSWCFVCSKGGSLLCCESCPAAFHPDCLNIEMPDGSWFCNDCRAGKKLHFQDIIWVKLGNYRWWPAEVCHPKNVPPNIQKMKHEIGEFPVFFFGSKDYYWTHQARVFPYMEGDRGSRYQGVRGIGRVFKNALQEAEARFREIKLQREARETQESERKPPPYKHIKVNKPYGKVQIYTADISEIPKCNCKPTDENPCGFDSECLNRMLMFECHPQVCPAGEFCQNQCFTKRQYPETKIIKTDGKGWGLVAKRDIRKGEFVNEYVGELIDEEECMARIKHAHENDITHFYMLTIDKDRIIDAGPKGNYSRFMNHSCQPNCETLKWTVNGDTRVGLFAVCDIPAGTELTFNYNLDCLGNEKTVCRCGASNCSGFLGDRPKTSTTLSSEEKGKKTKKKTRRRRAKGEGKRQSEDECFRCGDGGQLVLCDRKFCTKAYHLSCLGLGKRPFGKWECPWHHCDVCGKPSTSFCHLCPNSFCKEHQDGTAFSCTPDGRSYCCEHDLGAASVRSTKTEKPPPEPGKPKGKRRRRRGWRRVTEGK
# Procedure, shortened: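 Full-length NSD2 [1-1365] (8 nM final) with 1 μM SAM and 400 nM mouse-liver nucleosome in Tris pH 8.0 buffer; inhibitor preincubated 20 min with enzyme/SAM before nucleosome addition. Reaction 90 min at room temperature, TFA-quenched; SAH quantified by LC-MS/MS against d4-SAH internal standard and SAH standard curve.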
# [2] = tested on: cellular H3K36me2 level in multiple myeloma cell line KMS11 (t(4;14)+); assay: H3K36me2 cellular FRET assay in KMS11-Par line; assay type: cell-based; settings: Homo sapiens, KMS-11, KMS11-Par line, FRET, read-out: H3K36me2 FRET in KMS11-Par
# Procedure: H3K36Me2 Cellular FRET Assay in KMS11-Par Line
# Fluorescence Resonance Energy Transfer (FRET) assay was used to test the ability of candidate compound to reduce cellular H3K36me2 level in multiple myeloma cell line KMS11 (t(4;14)+) (Horizon Discovery Ltd.).
# Cells were treated with tested compounds at the desired concentration for 48 hours. […] Histone extract was incubated with Eu labeled anti-H3K36me2 antibody (abcam #ab ab9049) and d2 labeled anti-H3 antibody (abcam #ab1791) for 1 hour at room temperature. A Eu labeled anti-H3 antibody (CISBIO #64CUS000) was used for loading control. The abundancy of H3K36me2 or total H3 was measured by fluorescence signal on Perkin Elmer Envison machine.
# [3] = NSD2 biochemical activity, class symbols
Compound,IC50 [1],IC50 (NSD2 [1-1365]; [3]),IC50 ([2]; cellular H3K36me2 level),IC50 (NSD2 [1-1365]),IC50 [2]
"CC(C)OC[C@@]1(N)CCCN(c2cnc(-c3ccc(F)cc3)cc2Cn2cnc3c(N)ncnc32)C1 [Example 37, (R)-9-((5-(3-amino-3-(isopropoxymethyl)piperidin-1-yl)-2-(4-fluorophenyl)pyridin-4-yl)methyl)-9H-purin-6-amine]",1400 nM,10 to 1000 nM,614 nM,–,–
"Nc1ncnc2c1ncn2Cc1cc(-c2ccc(F)c(F)c2)ncc1N1CCC[C@](N)(Cc2ccccn2)C1 [Example 54, (S)-9-((5-(3-amino-3-(pyridin-2-ylmethyl)piperidin-1-yl)-2-(3,4-difluorophenyl)pyridin-4-yl)methyl)-9H-purin-6-amine]",780 nM,1 to 10 nM,450 nM,–,–
"COC[C@@]1(N)CCCN(c2cnc(-c3cc(Cl)ccc3F)cc2Cn2cnc3c(N)ncnc32)C1 [Example 26, (R)-9-((5-(3-amino-3-(methoxymethyl)piperidin-1-yl)-2-(5-chloro-2-fluorophenyl)pyridin-4-yl)methyl)-9H-purin-6-amine]",375 nM,1 to 10 nM,248 nM,–,–
"Nc1ncnc2c1ncn2Cc1cc(-c2ccc(F)c(F)c2)ncc1N1CCC[C@](N)(COC2CC2)C1 [Example 22, (R)-9-((5-(3-amino-3-(cyclopropoxymethyl)piperidin-1-yl)-2-(3,4-difluorophenyl)pyridin-4-yl)methyl)-9H-purin-6-amine]",–,1 to 10 nM,214 nM,–,–
"CN(C)C(=O)C[C@@]1(N)CCCN(c2cnc(-c3ccc(F)c(F)c3)cc2Cn2cnc3c(N)nccc32)C1 [Example 59, (S)-2-(3-amino-1-(4-((4-amino-1H-imidazo[4,5-c]pyridin-1-yl)methyl)-6-(3,4-difluorophenyl)pyridin-3-yl)piperidin-3-yl)-N,N-dimethylacetamide]",–,1 to 10 nM,33300 nM,–,–
"Nc1ncnc2c1ncn2Cc1cc(-c2cccc(F)c2)ncc1N1CC[C@@H](F)[C@@H](N)C1 [Example 8, 9-((5-((3S,4R)-3-amino-4-fluoropiperidin-1-yl)-2-(3-fluorophenyl)pyridin-4-yl)methyl)-9H-purin-6-amine]",–,10 to 1000 nM,5260 nM,–,–
"Nc1ncnc2c1ncn2Cc1cc(-c2ccc(F)cc2)ncc1N1CCC[C@](N)(CC(F)F)C1 [Example 71, (S)-9-((5-(3-amino-3-(2,2-difluoroethyl)piperidin-1-yl)-2-(4-fluorophenyl)pyridin-4-yl)methyl)-9H-purin-6-amine]",–,10 to 1000 nM,849 nM,–,–
"COc1ccc(-c2cc(Cn3cnc4c(N)ncc(Cl)c43)c(N3CCC[C@@H](N)C3)cn2)cc1F [Example 19, (R)-1-((5-(3-aminopiperidin-1-yl)-2-(3-fluoro-4-methoxyphenyl)pyridin-4-yl)methyl)-7-chloro-1H-imidazo[4,5-c]pyridin-4-amine]",–,10 to 1000 nM,3900 nM,–,–
"Nc1ncnc2c1ncn2Cc1cc(-c2cccc(F)c2)ncc1N1CCC(F)(F)C(N)C1 (centres unmarked) [Example 17, 9-((5-(3-amino-4,4-difluoropiperidin-1-yl)-2-(3-fluorophenyl)pyridin-4-yl)methyl)-9H-purin-6-amine]",–,> 1000 nM,154000 nM,–,–
"COC[C@@]1(N)CCCN(c2cnc(-c3ccc(F)cc3F)cc2Cn2cnc3c(N)ncnc32)C1 [Example 29, (R)-9-((5-(3-amino-3-(methoxymethyl)piperidin-1-yl)-2-(2,4-difluorophenyl)pyridin-4-yl)methyl)-9H-purin-6-amine]",–,1 to 10 nM,225 nM,–,–
"CO/N=C(\C)C1(N)CCCN(c2cnc(-c3ccc(OC)c(F)c3)cc2Cn2cnc3c(N)ncnc32)C1 (centres unmarked) [Example 96, (E)-1-(3-amino-1-(4-((6-amino-9H-purin-9-yl)methyl)-6-(3-fluoro-4-methoxyphenyl)pyridin-3-yl)piperidin-3-yl)ethan-1-one O-methyl oxime]",–,10 to 1000 nM,2400 nM,–,–
COC[C@@H]1[C@H](N)CCCN1c1cnc(-c2ccc(C#N)c(F)c2)cc1Cn1cnc2c(N)ncnc21 [Example 9],–,10 to 1000 nM,9900 nM,–,–
"COC[C@@]1(N)CCCN(c2cnc(-c3cccc(Cl)c3)cc2Cn2cnc3c(N)ncnc32)C1 [Example 27, (R)-9-((5-(3-amino-3-(methoxymethyl)piperidin-1-yl)-2-(3-chlorophenyl)pyridin-4-yl)methyl)-9H-purin-6-amine]",–,1 to 10 nM,501 nM,–,–
"Nc1ncnc2c1ncn2Cc1cc(-c2cccc(F)c2)ncc1N1CCC[C@@H](N)C1 [Example 4, (R)-9-((5-(3-aminopiperidin-1-yl)-2-(3-fluorophenyl)pyridin-4-yl)methyl)-9H-purin-6-amine]",–,10 to 1000 nM,4120 nM,–,–
"CN(C)C(=O)C[C@@]1(N)CCCN(c2cnc(-c3cccc(F)c3)cc2Cn2cnc3c(N)ncnc32)C1 [Example 70, (S)-2-(3-amino-1-(4-((6-amino-9H-purin-9-yl)methyl)-6-(3-fluorophenyl)pyridin-3-yl)piperidin-3-yl)-N,N-dimethylacetamide]",–,10 to 1000 nM,9440 nM,–,–
"COC[C@@]1(N)CCCN(c2cnc(-c3ccc(OC)cc3F)cc2Cn2cnc3c(N)ncnc32)C1 [Example 33, (R)-9-((5-(3-amino-3-(methoxymethyl)piperidin-1-yl)-2-(2-fluoro-4-methoxyphenyl)pyridin-4-yl)methyl)-9H-purin-6-amine]",–,1 to 10 nM,1030 nM,–,–
"Nc1ncnc2c1ncn2Cc1cc(-c2ccc(F)c(F)c2)ncc1N1CCC[C@](N)(Cc2nccs2)C1 [Example 53, (S)-9-((5-(3-amino-3-(thiazol-2-ylmethyl)piperidin-1-yl)-2-(3,4-difluorophenyl)pyridin-4-yl)methyl)-9H-purin-6-amine]",–,1 to 10 nM,327 nM,–,–
"CNC(=O)CC1(N)CCCN(c2cnc(-c3cccc(F)c3)cc2Cn2cnc3c(N)ncnc32)C1 (centres unmarked) [Example 66, 2-(3-amino-1-(4-((6-amino-9H-purin-9-yl)methyl)-6-(3-fluorophenyl)pyridin-3-yl)piperidin-3-yl)-N-methylacetamide]",–,10 to 1000 nM,118000 nM,–,–
"COc1ccc(-c2cc(Cn3cnc4c(N)ncnc43)c(N3CCC[C@](N)(COC(C)C)C3)cn2)cc1F [Example 25, (R)-9-((5-(3-amino-3-(isopropoxymethyl)piperidin-1-yl)-2-(3-fluoro-4-methoxyphenyl)pyridin-4-yl)methyl)-9H-purin-6-amine]",–,1 to 10 nM,995 nM,–,–
"Nc1ncnc2c1ncn2Cc1cc(-c2ccc(F)cc2)ncc1N1CCC[C@](N)(COC2CCC2)C1 [Example 36, (R)-9-((5-(3-amino-3-(cyclobutoxymethyl)piperidin-1-yl)-2-(4-fluorophenyl)pyridin-4-yl)methyl)-9H-purin-6-amine]",–,10 to 1000 nM,416 nM,–,–
"COc1ccc(-c2cc(Cn3cnc4c(N)ncnc43)c(N3CCC[C@](N)(CC(F)(F)F)C3)cn2)cc1F [Example 303, (S)-9-((5-(3-amino-3-(2,2,2-trifluoroethyl)piperidin-1-yl)-2-(3-fluoro-4-methoxyphenyl)pyridin-4-yl)methyl)-9H-purin-6-amine]",–,–,–,10 to 1000 nM,5370 nM
"Nc1ncnc2c1ncn2Cc1cc(-c2ccc(F)cc2)ncc1N1CCC[C@](N)(COC(F)F)C1 [Example 44, (R)-9-((5-(3-amino-3-((difluoromethoxy)methyl)piperidin-1-yl)-2-(4-fluorophenyl)pyridin-4-yl)methyl)-9H-purin-6-amine]",–,10 to 1000 nM,1620 nM,–,–
"Nc1ncnc2c1ncn2Cc1cc(-c2ccc(F)c(F)c2)ncc1N1CCC[C@](N)(COCC(F)(F)F)C1 [Example 43, (R)-9-((5-(3-amino-3-((2,2,2-trifluoroethoxy)methyl)piperidin-1-yl)-2-(3,4-difluorophenyl)pyridin-4-yl)methyl)-9H-purin-6-amine]",–,10 to 1000 nM,1240 nM,–,–
"COc1ccc(-c2cc(Cn3cnc4c(N)ncnc43)c(N3CCC[C@@](C)(N)C3)cn2)cc1F [Example 20, (R)-9-((5-(3-amino-3-methylpiperidin-1-yl)-2-(3-fluoro-4-methoxyphenyl)pyridin-4-yl)methyl)-9H-purin-6-amine]",–,10 to 1000 nM,2950 nM,–,–
"COc1ccc(-c2cc(Cn3cnc4c(N)ncnc43)c(N3CCC[C@@H](N)C3)cn2)cc1 [Example 11, (R)-9-((5-(3-aminopiperidin-1-yl)-2-(4-methoxyphenyl)pyridin-4-yl)methyl)-9H-purin-6-amine]",–,10 to 1000 nM,11200 nM,–,–
